Measurements reported in patent US12421240B2, “Hydropyrazino[1,2-d][1,4]diazepine compounds for the treatment of autoimmune disease” (Hoffmann-La Roche Inc., priority 2019, dated 2025).

Biological target: T1, human TLR9 (Homo sapiens, UniProt Q9NR96)
T1 sequence (Q9NR96 26-1032): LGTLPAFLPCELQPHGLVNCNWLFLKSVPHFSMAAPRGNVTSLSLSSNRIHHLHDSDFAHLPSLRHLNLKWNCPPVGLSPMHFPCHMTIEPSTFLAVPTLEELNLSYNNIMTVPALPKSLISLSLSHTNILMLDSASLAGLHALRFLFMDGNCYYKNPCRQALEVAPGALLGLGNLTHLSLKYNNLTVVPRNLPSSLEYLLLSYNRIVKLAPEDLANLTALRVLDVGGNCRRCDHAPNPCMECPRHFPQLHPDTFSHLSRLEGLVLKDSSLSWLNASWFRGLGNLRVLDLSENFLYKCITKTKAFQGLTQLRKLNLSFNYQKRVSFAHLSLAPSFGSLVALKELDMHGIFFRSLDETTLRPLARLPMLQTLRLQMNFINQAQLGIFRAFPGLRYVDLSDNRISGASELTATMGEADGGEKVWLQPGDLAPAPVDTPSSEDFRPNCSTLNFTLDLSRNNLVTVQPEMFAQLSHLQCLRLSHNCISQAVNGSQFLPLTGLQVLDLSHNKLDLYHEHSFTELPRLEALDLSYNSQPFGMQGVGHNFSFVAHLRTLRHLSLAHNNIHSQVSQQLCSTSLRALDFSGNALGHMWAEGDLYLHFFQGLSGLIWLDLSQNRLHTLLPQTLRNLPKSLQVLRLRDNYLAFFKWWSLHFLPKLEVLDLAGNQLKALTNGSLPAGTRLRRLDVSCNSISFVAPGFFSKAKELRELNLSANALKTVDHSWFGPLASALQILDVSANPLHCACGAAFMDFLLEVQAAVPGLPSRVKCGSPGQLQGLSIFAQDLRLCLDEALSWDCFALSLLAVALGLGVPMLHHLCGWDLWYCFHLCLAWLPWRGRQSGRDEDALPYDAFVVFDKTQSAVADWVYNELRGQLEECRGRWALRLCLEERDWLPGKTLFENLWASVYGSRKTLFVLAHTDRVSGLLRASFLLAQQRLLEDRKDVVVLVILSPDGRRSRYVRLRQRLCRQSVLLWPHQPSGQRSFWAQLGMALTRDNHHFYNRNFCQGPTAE
Assay: HEK293-Blue-hTLR-9 cells assay (SEAP reporter, ODN2006 stimulation)
Format: cell-based
Settings: HEK293-Blue-hTLR9 cells, ODN2006 ligand, 20 hrs; read-out: HEK/hTLR9 IC50
Procedure: The following tests were carried out in order to determine the activity of the compounds of formula (I), (Ia) or (Ib) in HEK293-Blue-hTLR-7/8/9 cells assay.
HEK293-Blue-hTLR-9 Cells Assay:
A stable HEK293-Blue-hTLR-9 cell line was purchased from InvivoGen (Cat. #: hkb-htlr9, San Diego, California, USA). These cells were originally designed for studying the stimulation of human TLR9 by monitoring the activation of NF-κB. A SEAP (secreted embryonic alkaline phosphatase) reporter gene was placed under the control of the IFN-β minimal promoter fused to five NF-κB and AP-1-binding sites. The SEAP was induced by activating NF-κB and AP-1 via stimulating HEK-Blue hTLR9 cells with TLR9 ligands. Therefore the reporter expression was declined by TLR9 antagonist under the stimulation of a ligand, such as ODN2006 (Cat. #: tlrl-2006-1, Invivogen, San Diego, California, USA), for incubation of 20 hrs. The cell culture supernatant SEAP reporter activity was determined using QUANTI-Blue™ kit (Cat. #: rep-qb1, Invivogen, San Diego, California, USA) at a wavelength of 640 nm, a detection medium that turns purple or blue in the presence of alkaline phosphatase.
HEK293-Blue-hTLR9 cells were incubated at a density of 250,000˜450,000 cells/mL in a volume of 170 μL in a 96-well plate in Dulbecco's Modified Eagle's medium (DMEM) containing 4.5 g/L glucose, 50 U/mL penicillin, […], 2 mM L-glutamine, 10% (v/v) heat-inactivated fetal bovine serum with addition of 20 μL test compound in a serial dilution in the presence of final DMSO at 1% and 10 μL of 20 uM ODN2006 in above DMEM, perform incubation under 37° C. in a CO2 incubator for 20 hrs. Then 20 μL of the supernatant from each well was incubated with 180 μL Quanti-blue substrate solution at 37° C. for 2 h and the absorbance was read at 620-655 nm using a spectrophotometer. The signaling pathway that TLR9 activation leads to downstream NF-κB activation has been widely accepted, and therefore similar reporter assay was modified for evaluating TLR9 antagonist.

Row | IC50 | SMILES
1 | 0.207 µM | C[C@@H]1CN(c2ccc(C#N)c3ncccc23)C[C@@H]2CCN(c3ccc(N4CCNCC4)nc3)CCN21 [Example 1, 5-[(4R,10aS)-4-methyl-8-(6-piperazin-1-yl-3-pyridyl)-1,3,4,6,7,9,10,10a-octahydropyrazino [1,2-d][1,4]diazepin-2-yl]quinoline-8-carbonitrile]
2 | 0.0593 µM | C[C@@H]1CN(c2ccc(C#N)c3ncccc23)C[C@@H]2CCN(c3cnc(N4CCNCC4)nc3)CCN21 [Example 2, 5-[(4R,10aS)-4-methyl-8-(2-piperazin-1-ylpyrimidin-5-yl)-1,3,4,6,7,9,10,10a-octahydropyrazino[1,2-d][1,4]diazepin-2-yl]quinoline-8-carbonitrile]
3 | 0.052 µM | C[C@@H]1CN(c2ccc(C#N)c3ncccc23)C[C@@H]2CCN(c3ccc([C@H]4CNCCO4)cc3)CCN21 [Example 3, 5-[(4R,10aS)-4-methyl-8-[4-[(2S)-morpholin-2-yl]phenyl]-1,3,4,6,7,9,10,10a-octahydropyrazino[1,2-d][1,4]diazepin-2-yl]quinoline-8-carbonitrile]
4 | < 0.0318 µM | C[C@@H]1CN(c2ccc(C#N)c3ncccc23)C[C@@H]2CCN(c3cncc4c3CCNC4)CCN21 [Example 4, 5-[(4R,10aS)-4-methyl-8-(5,6,7,8-tetrahydro-2,7-naphthyridin-4-yl)-1,3,4,6,7,9,10,10a-octahydropyrazino[1,2-d][1,4]diazepin-2-yl]quinoline-8-carbonitrile]
5 | 0.0721 µM | C[C@@H]1CN(c2ccc(C#N)c3ncccc23)C[C@@H]2CCN(c3ccc4c(n3)CNCC4)CCN21 [Example 5, 5-[(4R,10aS)-4-methyl-8-(5,6,7,8-tetrahydro-1,7-naphthyridin-2-yl)-1,3,4,6,7,9,10,10a-octahydropyrazino[1,2-d][1,4]diazepin-2-yl]quinoline-8-carbonitrile]
6 | 0.101 µM | C[C@@H]1CN(c2ccc(C#N)c3ncccc23)C[C@@H]2CCN(c3ccc4c(n3)CCNC4)CCN21 [Example 6, 5-[(4R,10aS)-4-methyl-8-(5,6,7,8-tetrahydro-1,6-naphthyridin-2-yl)-1,3,4,6,7,9,10,10a-octahydropyrazino[1,2-d][1,4]diazepin-2-yl]quinoline-8-carbonitrile]
7 | 0.0819 µM | C[C@@H]1CN(c2ccc(C#N)c3ncccc23)C[C@@H]2CCN(c3cc4c(cn3)CNCC4)CCN21 [Example 7, 5-[(4R,10aS)-4-methyl-8-(5,6,7,8-tetrahydro-2,7-naphthyridin-3-yl)-1,3,4,6,7,9,10,10a-octahydropyrazino[1,2-d][1,4]diazepin-2-yl]quinoline-8-carbonitrile]
8 | 0.0622 µM | C[C@@H]1CN(c2ccc(C#N)c3ncccc23)C[C@@H]2CCN(Cc3cc4c(cn3)CNCC4)CCN21 [Example 8, 5-[(4R,10aS)-4-methyl-8-(5,6,7,8-tetrahydro-2,7-naphthyridin-3-ylmethyl)-1,3,4,6,7,9,10,10a-octahydropyrazino[1,2-d][1,4]diazepin-2-yl]quinoline-8-carbonitrile]
9 | 0.035 µM | C[C@@H]1CN(c2ccc(C#N)c3ncccc23)C[C@@H]2CCN(Cc3cc4c(cn3)CCNC4)CCN21 [Example 9, 5-[(4R,10aS)-4-methyl-8-(5,6,7,8-tetrahydro-2,6-naphthyridin-3-ylmethyl)-1,3,4,6,7,9,10,10a-octahydropyrazino[1,2-d][1,4]diazepin-2-yl]quinoline-8-carbonitrile]
10 | < 0.0318 µM | C[C@@H]1CN(c2ccc(C#N)c3ncccc23)C[C@@H]2CCN(Cc3cnc4c(c3)CNCC4)CCN21 [Example 10, 5-[(4R,10aS)-4-methyl-8-(5,6,7,8-tetrahydro-1,6-naphthyridin-3-ylmethyl)-1,3,4,6,7,9,10,10a-octahydropyrazino[1,2-d][1,4]diazepin-2-yl]quinoline-8-carbonitrile]
11 | 0.0438 µM | C[C@@H]1CN(c2ccc(C#N)c3ncccc23)C[C@@H]2CCN(Cc3ccc4c(c3)CNCC4)CCN21 [Example 12, 5-[(4R,10aS)-4-methyl-8-(1,2,3,4-tetrahydroisoquinolin-7-ylmethyl)-1,3,4,6,7,9,10,10a-octahydropyrazino[1,2-d][1,4]diazepin-2-yl]quinoline-8-carbonitrile]
12 | 0.0964 µM | C[C@@H]1CN(c2ccc(C#N)c3ncccc23)C[C@@H]2CCN(Cc3ncc(N4CCNCC4)cn3)CCN21 [Example 13, 5-[(4R,10aS)-4-methyl-8-[(5-piperazin-1-ylpyrimidin-2-yl)methyl]-1,3,4,6,7,9,10,10a-octahydropyrazino[1,2-d][1,4]diazepin-2-yl]quinoline-8-carbonitrile]
13 | 0.0354 µM | C[C@@H]1CN(c2ccc(C#N)c3ncccc23)C[C@@H]2CCN(Cc3cncc(N4CCNCC4)c3)CCN21 [Example 16, 5-[(4R,10aS)-4-methyl-8-[(5-piperazin-1-yl-3-pyridyl)methyl]-1,3,4,6,7,9,10,10a-octahydropyrazino[1,2-d][1,4]diazepin-2-yl]quinoline-8-carbonitrile]
14 | < 0.0318 µM | C[C@@H]1CN(c2ccc(C#N)c3ncccc23)C[C@@H]2CCN(Cc3cccc(N4CCNCC4)n3)CCN21 [Example 18, 5-[(4R,10aS)-4-methyl-8-[(6-piperazin-1-yl-2-pyridyl)methyl]-1,3,4,6,7,9,10,10a-octahydropyrazino[1,2-d][1,4]diazepin-2-yl]quinoline-8-carbonitrile]
15 | 0.0458 µM | C[C@@H]1CN(c2ccc(C#N)c3ncccc23)C[C@@H]2CCN(Cc3ccc(N4CCNCC4)cn3)CCN21 [Example 19, 5-[(4R,10aS)-4-methyl-8-[(5-piperazin-1-yl-2-pyridyl)methyl]-1,3,4,6,7,9,10,10a-octahydropyrazino[1,2-d][1,4]diazepin-2-yl]quinoline-8-carbonitrile]
16 | 0.0349 µM | C[C@@H]1CN(c2ccc(C#N)c3ncccc23)C[C@@H]2CCN(Cc3ccc(N4C[C@@H](N)[C@@H](F)C4)cn3)CCN21 [Example 20, 5-[(4R,10aS)-8-[[5-[(3R,4S)-3-amino-4-fluoro-pyrrolidin-1-yl]-2-pyridyl]methyl]-4-methyl-1,3,4,6,7,9,10,10a-octahydropyrazino[1,2-d][1,4]diazepin-2-yl]quinoline-8-carbonitrile]
17 | 0.0628 µM | CO[C@@H]1CN(c2ccc(CN3CC[C@H]4CN(c5ccc(C#N)c6ncccc56)C[C@@H](C)N4CC3)nc2)C[C@H]1N [Example 22, 5-[(4R,10aS)-8-[[5-[(3R,4R)-3-amino-4-methoxy-pyrrolidin-1-yl]-2-pyridyl]methyl]-4-methyl-1,3,4,6,7,9,10,10a-octahydropyrazino[1,2-d][1,4]diazepin-2-yl]quinoline-8-carbonitrile]
18 | 0.0874 µM | CO[C@@H]1CN(c2cnc(CN3CC[C@H]4CN(c5ccc(C#N)n6nccc56)C[C@@H](C)N4CC3)c(F)c2)C[C@H]1N [Example 26, 4-[(4R,10aS)-8-[[5-[(3R,4R)-3-amino-4-methoxy-pyrrolidin-1-yl]-3-fluoro-2-pyridyl]methyl]-4-methyl-1,3,4,6,7,9,10,10a-octahydropyrazino[1,2-d][1,4]diazepin-2-yl]pyrazolo[1,5-a]pyridine-7-carbonitrile]
